# Where two headings read alike, the source gives them in different places.
# What was measured:
# [1] = target: ErbB2 insYVMA (HER2-YVMA, SEQ ID NO: 2) (Homo sapiens, UniProt P04626, INS775YVMA/P1170A); experiment: biochemical; conditions: ErbB2 insYVMA enzyme assay
# EGFR = EGFR (Homo sapiens (Human), UniProt P00533); experiment: ErbB enzyme assay (CisBio HTRF KinEASE-TK), Assay 3; type: biochemical
# Description: (§1) Compound potencies were determined using CisBio's HTRF Kinease-TK assay technology. The kinases were incubated with 250 nM TK-substrate biotin (CisBio, part of cat #62TK0PEC) at 1 mM ATP along with test compounds in a buffer consisting of 25 mM HEPES, pH 7.4, 10 mM MgCl2, 0.01% Triton X-100, and 2% DMSO in a volume of 8 μL. Compounds were prepared as a three-fold serial dilution in DMSO and added to the assay to give the appropriate final concentration. After 30-minute incubation at 22° C., the reaction was quenched by adding 8 μL of quench solution containing 62.5 nM Sa-XL665 and 0.25× TK-Ab-Cryptate in HTRF detection buffer (all from CisBio, part of cat #62TK0PEC). After a 1-hour incubation at 22° C., the extent of reaction was determined using a PerkinElmer EnVision multimode plate reader via HTRF dual wavelength detection, and the percent of control (POC) was calculated using a ratiometric emission factor. One hundred POC was determined using DMSO only samples (no compound present), and 0 POC was determined using pre-quenched control reactions. A 4-parameter logistic curve was fit to the POC values as a function of the concentration of compound, and the IC50 value was the point where the best-fit curve crossed 50 POC.
# (§2) Enzyme lots and concentration used are in Table 2.
# ErbB2 WT = ErbB2 WT (Homo sapiens (Human), UniProt P04626); experiment: ErbB enzyme assay (CisBio HTRF KinEASE-TK), Assay 2; type: biochemical
# ErbB2 WT, sequence (P04626 23-1255): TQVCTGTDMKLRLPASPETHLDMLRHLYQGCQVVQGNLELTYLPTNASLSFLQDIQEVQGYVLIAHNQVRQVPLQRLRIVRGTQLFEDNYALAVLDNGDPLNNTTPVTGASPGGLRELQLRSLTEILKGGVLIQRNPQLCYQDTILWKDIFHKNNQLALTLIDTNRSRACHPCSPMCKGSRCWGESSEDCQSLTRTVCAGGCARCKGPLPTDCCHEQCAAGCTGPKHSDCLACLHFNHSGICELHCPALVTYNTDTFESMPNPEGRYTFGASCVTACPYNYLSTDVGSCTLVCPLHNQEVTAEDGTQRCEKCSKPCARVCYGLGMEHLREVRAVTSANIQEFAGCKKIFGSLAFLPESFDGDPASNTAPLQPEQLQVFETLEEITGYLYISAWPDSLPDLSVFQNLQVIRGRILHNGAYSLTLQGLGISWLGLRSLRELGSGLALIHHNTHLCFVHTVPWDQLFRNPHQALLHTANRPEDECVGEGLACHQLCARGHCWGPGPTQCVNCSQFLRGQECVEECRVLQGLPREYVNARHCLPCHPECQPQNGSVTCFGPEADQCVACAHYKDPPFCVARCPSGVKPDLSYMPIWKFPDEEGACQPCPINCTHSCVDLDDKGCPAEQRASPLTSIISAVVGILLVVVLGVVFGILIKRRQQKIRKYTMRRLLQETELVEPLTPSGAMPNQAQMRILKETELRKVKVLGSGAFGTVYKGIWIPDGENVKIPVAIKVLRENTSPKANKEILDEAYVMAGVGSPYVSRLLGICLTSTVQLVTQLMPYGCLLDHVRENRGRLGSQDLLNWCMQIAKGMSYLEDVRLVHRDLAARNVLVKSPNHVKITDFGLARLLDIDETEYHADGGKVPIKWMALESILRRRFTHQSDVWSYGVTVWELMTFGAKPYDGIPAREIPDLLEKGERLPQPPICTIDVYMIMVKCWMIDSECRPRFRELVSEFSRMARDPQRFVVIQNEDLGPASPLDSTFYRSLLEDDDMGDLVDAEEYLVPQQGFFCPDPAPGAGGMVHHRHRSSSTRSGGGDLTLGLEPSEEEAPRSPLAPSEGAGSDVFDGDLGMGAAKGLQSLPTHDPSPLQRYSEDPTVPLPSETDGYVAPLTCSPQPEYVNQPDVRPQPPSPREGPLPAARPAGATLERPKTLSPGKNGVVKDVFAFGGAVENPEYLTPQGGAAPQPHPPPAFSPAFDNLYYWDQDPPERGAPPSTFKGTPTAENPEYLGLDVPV
# Description: as §1, with “Compounds were prepared as a three-fold serial dilution in DMSO and added to the assay to give the appropriate final concentration.” left out, “reactions.” for “reactions. A 4-parameter logistic curve was fit to the POC values as a function of the concentration of compound, and the IC50 value was the point where the best-fit curve crossed 50 POC.”
# as §2
# [2] = target: ErbB2 with Exon 20 YVMA insertion (HER2-YVMA) (Homo sapiens (Human), UniProt P04626, INS775YVMA); experiment: Cellular phosphorylation assay, constitutive ErbB2 phosphorylation (Y1196) in engineered NIH 3T3 cells, Assay 4; type: cell-based
# ErbB2 with Exon 20 YVMA insertion (HER2-YVMA), sequence (P04626 other isoform, or with tags, fused parts or gaps ins YVMA behind 775): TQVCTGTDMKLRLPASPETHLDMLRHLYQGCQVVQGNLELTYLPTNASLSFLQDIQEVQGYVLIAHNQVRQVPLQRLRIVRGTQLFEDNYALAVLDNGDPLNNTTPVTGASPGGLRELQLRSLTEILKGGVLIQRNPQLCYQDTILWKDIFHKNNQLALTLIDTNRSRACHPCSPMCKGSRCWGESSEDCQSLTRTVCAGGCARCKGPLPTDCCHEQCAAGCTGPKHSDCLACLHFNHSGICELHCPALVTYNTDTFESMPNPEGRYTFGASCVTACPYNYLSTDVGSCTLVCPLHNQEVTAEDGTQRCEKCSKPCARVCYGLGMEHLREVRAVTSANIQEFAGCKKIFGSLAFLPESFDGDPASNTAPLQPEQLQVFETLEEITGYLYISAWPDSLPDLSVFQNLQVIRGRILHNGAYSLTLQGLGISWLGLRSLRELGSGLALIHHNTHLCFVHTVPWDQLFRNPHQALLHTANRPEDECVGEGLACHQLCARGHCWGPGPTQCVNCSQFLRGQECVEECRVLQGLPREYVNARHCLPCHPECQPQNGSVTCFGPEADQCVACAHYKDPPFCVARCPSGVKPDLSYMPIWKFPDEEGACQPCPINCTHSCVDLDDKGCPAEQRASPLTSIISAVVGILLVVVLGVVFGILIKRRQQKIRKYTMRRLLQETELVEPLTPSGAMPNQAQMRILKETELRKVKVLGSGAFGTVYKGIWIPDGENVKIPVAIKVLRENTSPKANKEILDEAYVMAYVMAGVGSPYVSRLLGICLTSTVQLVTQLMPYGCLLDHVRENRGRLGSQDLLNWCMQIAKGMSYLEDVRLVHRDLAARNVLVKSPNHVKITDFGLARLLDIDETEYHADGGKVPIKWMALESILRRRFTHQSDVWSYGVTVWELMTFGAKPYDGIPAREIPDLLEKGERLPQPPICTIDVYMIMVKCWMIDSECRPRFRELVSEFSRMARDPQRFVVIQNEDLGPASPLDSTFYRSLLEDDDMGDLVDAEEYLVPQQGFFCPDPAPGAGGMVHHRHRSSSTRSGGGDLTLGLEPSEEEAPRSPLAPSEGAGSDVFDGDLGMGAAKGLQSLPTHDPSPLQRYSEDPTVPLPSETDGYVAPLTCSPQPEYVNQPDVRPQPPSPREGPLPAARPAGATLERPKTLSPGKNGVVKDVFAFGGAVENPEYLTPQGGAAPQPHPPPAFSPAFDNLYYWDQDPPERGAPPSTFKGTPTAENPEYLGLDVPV
# Description: Serially diluted compounds were added to the plates for 1 hour at 37° C./5% CO2. EGFR WT cells were stimulated with 100 ng/ml rEGF for an additional 10 minutes at 37° C./5% CO2. After compound incubation, medium was removed from the cells, which were then fixed in 3.7% formaldehyde in PBS at room temperature for 20 minutes. Following a wash with PBS, cells were permeabilized with 100% methanol at room temperature for 10 minutes. Cells were then washed with PBS/0.05% Tween-20 and blocked with Odyssey blocking buffer (LI-COR Biosciences) for at least 1 hour at room temperature. Antibodies to phosphorylated ErbB2 (Y1196, Cell Signaling #6942) or phosphorylated EGFR (Y1068, Cell Signaling #3777) and GAPDH (Millipore #MAB374) were added to the cells in blocking buffer containing 0.05% azide and incubated overnight at 4° C. After washing with PBS/0.05° i° Tween-20, the cells were incubated with fluorescently labeled secondary anti-rabbit antibody (LiCOR, IRDye 800CW #926-32211) and anti-mouse antibody (Molecular Probes, Alexa Fluor 680 #A21058) for 1 hour at room temperature in the dark. Cells were then washed and analyzed for fluorescence at both wavelengths using the Odyssey Infrared Imaging System (LI-COR Biosciences). Phosphorylated ErbB2 and EGFR signal was normalized to GAPDH signal to generate curves and calculate IC50 values.
# ErbB2 insYVMA (HER2-YVMA, SEQ ID NO: 2), sequence (P04626 with tags, fused parts or gaps INS775YVMA/P1170A limits assumed): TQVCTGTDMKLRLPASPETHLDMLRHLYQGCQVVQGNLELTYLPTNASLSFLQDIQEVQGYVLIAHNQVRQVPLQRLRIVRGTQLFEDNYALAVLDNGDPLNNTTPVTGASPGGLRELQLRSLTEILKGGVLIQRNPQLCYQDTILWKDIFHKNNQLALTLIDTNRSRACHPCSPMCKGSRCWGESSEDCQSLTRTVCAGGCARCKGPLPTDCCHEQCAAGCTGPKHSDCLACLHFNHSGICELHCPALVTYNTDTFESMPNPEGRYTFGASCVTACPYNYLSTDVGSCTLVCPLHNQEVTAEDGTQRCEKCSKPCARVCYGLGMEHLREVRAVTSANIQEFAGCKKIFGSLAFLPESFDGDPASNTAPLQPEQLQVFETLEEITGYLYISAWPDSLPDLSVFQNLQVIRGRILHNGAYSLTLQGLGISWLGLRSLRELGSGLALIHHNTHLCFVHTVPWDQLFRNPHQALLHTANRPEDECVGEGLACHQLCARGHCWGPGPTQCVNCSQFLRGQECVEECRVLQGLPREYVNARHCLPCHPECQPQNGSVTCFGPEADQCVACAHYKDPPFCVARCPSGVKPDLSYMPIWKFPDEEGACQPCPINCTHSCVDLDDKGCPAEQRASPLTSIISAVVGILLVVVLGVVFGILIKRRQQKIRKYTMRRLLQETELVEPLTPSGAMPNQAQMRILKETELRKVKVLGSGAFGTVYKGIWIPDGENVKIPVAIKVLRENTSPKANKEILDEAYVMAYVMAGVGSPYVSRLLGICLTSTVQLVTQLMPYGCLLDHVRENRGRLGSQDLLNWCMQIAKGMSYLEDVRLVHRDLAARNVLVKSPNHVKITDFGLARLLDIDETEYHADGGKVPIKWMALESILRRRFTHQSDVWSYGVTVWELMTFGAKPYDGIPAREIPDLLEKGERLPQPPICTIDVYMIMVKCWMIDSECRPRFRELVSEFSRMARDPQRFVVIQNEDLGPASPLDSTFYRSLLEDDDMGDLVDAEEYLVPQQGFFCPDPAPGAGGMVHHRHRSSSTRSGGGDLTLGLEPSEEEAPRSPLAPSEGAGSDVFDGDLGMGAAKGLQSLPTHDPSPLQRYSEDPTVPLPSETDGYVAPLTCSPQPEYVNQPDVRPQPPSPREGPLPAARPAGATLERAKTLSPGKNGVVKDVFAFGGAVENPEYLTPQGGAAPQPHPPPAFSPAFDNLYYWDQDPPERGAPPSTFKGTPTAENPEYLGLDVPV
# EGFR, sequence (P00533 25-1210): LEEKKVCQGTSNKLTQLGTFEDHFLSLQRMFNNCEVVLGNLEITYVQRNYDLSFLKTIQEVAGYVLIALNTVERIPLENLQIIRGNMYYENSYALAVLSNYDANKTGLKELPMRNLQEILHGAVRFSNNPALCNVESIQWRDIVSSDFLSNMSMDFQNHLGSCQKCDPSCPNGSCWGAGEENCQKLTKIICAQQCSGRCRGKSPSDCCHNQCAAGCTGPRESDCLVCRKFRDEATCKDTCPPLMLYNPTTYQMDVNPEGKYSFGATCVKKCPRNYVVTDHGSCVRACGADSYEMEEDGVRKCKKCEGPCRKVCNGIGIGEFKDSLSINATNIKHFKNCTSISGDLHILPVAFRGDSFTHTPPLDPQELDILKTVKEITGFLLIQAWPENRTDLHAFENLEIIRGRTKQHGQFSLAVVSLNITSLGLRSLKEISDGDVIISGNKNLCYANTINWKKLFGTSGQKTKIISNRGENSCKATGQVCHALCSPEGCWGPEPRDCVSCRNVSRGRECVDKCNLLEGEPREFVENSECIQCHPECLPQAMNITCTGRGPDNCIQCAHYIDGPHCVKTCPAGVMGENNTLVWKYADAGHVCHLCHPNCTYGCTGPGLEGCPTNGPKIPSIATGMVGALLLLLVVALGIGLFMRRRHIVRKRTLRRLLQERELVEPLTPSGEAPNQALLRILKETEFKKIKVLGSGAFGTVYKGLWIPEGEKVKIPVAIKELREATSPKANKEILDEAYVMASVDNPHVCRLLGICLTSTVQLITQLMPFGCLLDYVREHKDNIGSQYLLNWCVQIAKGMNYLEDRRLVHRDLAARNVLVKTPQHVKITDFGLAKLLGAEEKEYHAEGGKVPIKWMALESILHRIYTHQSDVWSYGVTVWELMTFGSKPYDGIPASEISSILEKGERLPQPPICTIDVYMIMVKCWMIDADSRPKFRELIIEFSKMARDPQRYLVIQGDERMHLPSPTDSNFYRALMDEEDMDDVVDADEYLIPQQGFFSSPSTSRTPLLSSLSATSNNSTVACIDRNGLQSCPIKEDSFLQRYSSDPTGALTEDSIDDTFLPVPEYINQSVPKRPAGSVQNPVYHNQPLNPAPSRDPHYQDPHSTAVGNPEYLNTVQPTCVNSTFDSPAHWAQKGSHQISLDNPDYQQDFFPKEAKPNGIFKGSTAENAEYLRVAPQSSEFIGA
SMILES,IC50 ([1]; read-out: Assay 1 IC50),IC50 (EGFR),IC50 (ErbB2 WT),IC50 [2],IC50 ([1]; Assay 1 IC50 (nM))
"Cc1cc(Nc2ncnc3cnc(N4CC5CC(C4)N5C)nc23)ccc1Oc1ccc2c(c1)ncn2C [Example 33, N-(3-methyl-4-((1-methyl-1H-benzo[d]imidazol-5-yl)oxy)phenyl)-6-(6-methyl-3,6-diazabicyclo[3.1.1]heptan-3-yl)pyrimido[5,4-d]pyrimidin-4-amine]",100 nM,≥ 10000 nM,371 nM,583 nM,–
Cc1cc(Nc2ncnc3cnc(OCC(C)(C)O)nc23)ccc1Oc1ccc2c(c1)ncn2C [Example 476],39.5 nM,≥ 10000 nM,232 nM,155 nM,–
CCCOc1ncc2ncnc(Nc3ccc(Oc4ccc5c(c4)ncn5C)c(C)c3)c2n1 [Example 221],122 nM,≥ 10000 nM,334 nM,548 nM,–
Cc1cc(Nc2ncnc3cnc(N4CCOC[C@@H]4C)nc23)ccc1Oc1ccc2c(c1)ncn2C [Example 258],88.3 nM,≥ 10000 nM,177 nM,51.4 nM,–
Cc1cc(Nc2ncnc3cnc(N4CC[C@H](C)C4=O)nc23)ccc1Oc1ccc2c(c1)ncn2C [Example 250],46.3 nM,≥ 10000 nM,67.6 nM,54.6 nM,–
Cc1cc(Nc2ncnc3cnc(N4CC[Si](C)(C)CC4)nc23)ccc1Oc1ccc2c(c1)ncn2C [Example 474],–,≥ 10000 nM,727 nM,559 nM,254 nM
"Cc1cc(Nc2ncnc3cnc(N4CCCC(OC(F)F)C4)nc23)ccc1Oc1ccc2c(c1)ncn2C (racemic) [Example 40, 6-(3-(difluoromethoxy)piperidin-1-yl)-N-(3-methyl-4-((1-methyl-1H-benzo[d]imidazol-5-yl)oxy)phenyl)pyrimido[5,4-d]pyrimidin-4-amine]",71.5 nM,≥ 10000 nM,145 nM,91.5 nM,–
"COC1CN(c2ncc3ncnc(Nc4ccc(Oc5ccc6c(c5)ncn6C)c(C)c4)c3n2)C1 [Example 43, 6-(3-methoxyazetidin-1-yl)-N-(3-methyl-4-((1-methyl-1H-benzo[d]imidazol-5-yl)oxy)phenyl)pyrimido[5,4-d]pyrimidin-4-amine]",28.8 nM,≥ 10000 nM,59.8 nM,92.1 nM,–
"Cc1cc(Nc2ncnc3cnc(NC4CCC4(F)F)nc23)ccc1Oc1ccc2c(c1)ncn2C (stereo not drawn) [Example 52, N2-(2,2-difluorocyclobutyl)-N8-(3-methyl-4-((1-methyl-1H-benzo[d]imidazol-5-yl)oxy)phenyl)pyrimido[5,4-d]pyrimidine-2,8-diamine]",100 nM,≥ 10000 nM,317 nM,160 nM,–
"Cc1cc(Nc2ncnc3cnc(N4C[C@H](C)O[C@@H](C)C4)nc23)ccc1Oc1ccc2c(c1)ncn2C [Example 72, 6-((2S,6S)-2,6-dimethylmorpholino)-N-(3-methyl-4-((1-methyl-1H-benzo[d]imidazol-5-yl)oxy)phenyl)pyrimido[5,4-d]pyrimidin-4-amine]",–,≥ 10000 nM,83.9 nM,76.6 nM,69.6 nM
"COCCOc1ncc2ncnc(Nc3ccc(Oc4ccc5c(c4)ncn5C)c(C)c3)c2n1 [Example 76, 6-(2-methoxyethoxy)-N-(3-methyl-4-((1-methyl-1H-benzo[d]imidazol-5-yl)oxy)phenyl)pyrimido[5,4-d]pyrimidin-4-amine 2,2,2-trifluoroacetate]",–,≥ 10000 nM,2340 nM,1300 nM,337 nM
"Cc1cnc(-c2ncc3ncnc(Nc4ccc(Oc5ccc6c(c5)ncn6C)c(C)c4)c3n2)s1 [Example 41, N-(3-methyl-4-((1-methyl-1H-benzo[d]imidazol-5-yl)oxy)phenyl)-6-(5-methylthiazol-2-yl)pyrimido[5,4-d]pyrimidin-4-amine]",196 nM,≥ 10000 nM,234 nM,53 nM,–
CO[C@H]1CCCN(c2ncc3ncnc(Nc4ccc(Oc5ccc6c(c5)ncn6C)c(C)c4)c3n2)C1 [Example 248],57.4 nM,≥ 10000 nM,122 nM,65.7 nM,–
"CC(=O)N1CC2CC(C1)N2c1ncc2ncnc(Nc3ccc(Oc4ccc5c(c4)ncn5C)c(C)c3)c2n1 [Example 23, 1-(6-(8-((3-methyl-4-((1-methyl-1H-benzo[d]imidazol-5-yl)oxy)phenyl)amino)pyrimido[5,4-d]pyrimidin-2-yl)-3,6-diazabicyclo[3.1.1]heptan-3-yl)ethan-1-one]",313 nM,≥ 10000 nM,1340 nM,717 nM,–
"Cc1cc(Nc2ncnc3cnc(N4CCC[C@@H]4C(F)F)nc23)ccc1Oc1ccc2c(c1)ncn2C [Example 56, (R)-6-(2-(difluoromethyl)pyrrolidin-1-yl)-N-(3-methyl-4-((1-methyl-1H-benzo[d]imidazol-5-yl)oxy)phenyl)pyrimido[5,4-d]pyrimidin-4-amine]",205 nM,≥ 10000 nM,403 nM,105 nM,–
"Cc1cc(Nc2ncnc3cnc(N4CC5CC(C5)C4)nc23)ccc1Oc1ccc2c(c1)ncn2C [Example 39, 6-(3-azabicyclo[3.1.1]heptan-3-yl)-N-(3-methyl-4-((1-methyl-1H-benzo[d]imidazol-5-yl)oxy)phenyl)pyrimido[5,4-d]pyrimidin-4-amine]",199 nM,≥ 10000 nM,358 nM,292 nM,–
Cc1cc(Nc2ncnc3cnc(N4CC(COC(F)F)C4)nc23)ccc1Oc1ccc2c(c1)ncn2C [Example 245],50.4 nM,≥ 10000 nM,142 nM,109 nM,–
COC1CC2(C1)CN(c1ncc3ncnc(Nc4ccc(Oc5ccc6c(c5)ncn6C)c(C)c4)c3n1)C2 [Example 237],32 nM,≥ 10000 nM,70.2 nM,71.6 nM,–
Cc1cc(Nc2ncnc3cnc(N4CC[C@H]4C(C)(C)O)nc23)ccc1Oc1ccc2c(c1)ncn2C [Example 407],31.5 nM,≥ 10000 nM,117 nM,84.1 nM,–
Cc1cc(Nc2ncnc3cnc(N4CC[C@H]4C(F)F)nc23)ccc1Oc1ccc2c(c1)ncn2C [Example 388],62.1 nM,≥ 10000 nM,89.4 nM,52.2 nM,–
"Cc1cc(Nc2ncnc3cnc(N4CC5(CCOC5)C4)nc23)ccc1Oc1ccc2c(c1)ncn2C [Example 21, N-(3-methyl-4-((1-methyl-1H-benzo[d]imidazol-5-yl)oxy)phenyl)-6-(6-oxa-2-azaspiro[3.4]octan-2-yl)pyrimido[5,4-d]pyrimidin-4-amine]",33.7 nM,1000 nM,98.4 nM,82.7 nM,–
Cc1cc(Nc2ncnc3cnc(N4CCCCC4)nc23)ccc1Oc1ccc2c(c1)ncn2C [Example 242],111 nM,≥ 10000 nM,130 nM,76.3 nM,–
Cc1cc(Nc2ncnc3cnc(N4CCC4C(F)(F)F)nc23)ccc1Oc1ccc2c(c1)ncn2C (stereo not drawn) [Example 238],99.3 nM,≥ 10000 nM,227 nM,163 nM,–
Cc1cc(Nc2ncnc3cnc(O[C@@H]4CNC[C@@H]4F)nc23)ccc1Oc1ccc2c(c1)ncn2C [Example 283],39.5 nM,≥ 10000 nM,301 nM,261 nM,–
